Measured values as given in patent publication US8927484B2, “Antiviral compounds” (Gilead Sciences, Inc., priority 2009, dated 2015).

Tested on: Replicon cells harboring H77 (genotype 1a) or Con1 (genotype 1b) HCV RNA and Renilla luciferase reporter
Test: High Throughput Replicon Assay (HTBS)
Format: cell-based
Conditions: 72 h, read-out: INH @1 μM (Mean)
Procedure: High Throughput Replicon Assay (HTBS)
Replicon cells harboring H77 (genotype 1a) or Con1 (genotype 1b) HCV RNA and Renilla luciferase reporter were seeded in 384-well black plates at a density of 1.6×10^3 cells per well in 90 μl of DMEM culture medium, excluding G-418. Compounds were serially diluted in 100% DMSO and added to cells at a 1:225 dilution, achieving a final concentration of 0.44% DMSO in a total volume of 90 μL with a Biotek uFlow Workstation. Cell plates were incubated at 37° C. with 5% CO2 for 3 days, after which culture media were removed and cells were assayed for luciferase activity as a marker for replication level. Luciferase expression was measured using Dual-Glo luciferase assay reagents (Promega, Madison, Wis.). Briefly, 20 μL of Dual-Glo luciferase buffer was added to lyse the cells for 10 min and subsequently 20 μL of a diluted Dual-Glo Stop & Glo substrate (1:100) was added to each well. Luminescence signal was measured on a Perkin Elmer Envision Plate Reader after incubation for 10 minute. Luciferase levels were converted into percentages relative to the untreated controls (defined as 100%) and data were fit to the logistic dose response equation y=a/(1+(x/b)^c) using XLFit4 software (IDBS, Emeryville, Calif.). EC50 values were calculated from the resulting equations.

| SMILES | inhibition at 1 µM [%] |
| --- | --- |
| C=C[C@@H]1C[C@]1(NC(=O)[C@@H]1C[C@@H](Oc2cc(-c3csc(C(C)C)n3)nc3c(Cl)c(OC)ccc23)[C@H]2CN(C(=O)OC(C)(C)C)[C@H](C(C)(C)C)C(=O)N21)C(=O)NS(=O)(=O)C1CC1 [Example 2] | > 99 |
| C=C[C@@H]1C[C@]1(NC(=O)[C@@H]1C[C@@H](Oc2cc(-c3csc(C(C)C)n3)nc3c(Cl)c(OC)ccc23)[C@H]2CN(C(=O)OC(C)(C)C)[C@H](C(C)(C)C)C(=O)N21)C(=O)NS(=O)(=O)C1(C)CC1 [Example 4] | > 99 |
| CC[C@@H]1C[C@]1(NC(=O)[C@@H]1C[C@@H](Oc2cc(-c3nc(C(C)C)cs3)nc3c(Cl)c(OC)ccc23)[C@H]2CN(C(=O)OC(C)(C)C)[C@H](C(C)C)C(=O)N21)C(=O)NS(=O)(=O)C1CC1 [Example 6] | > 99 |
| C=C[C@@H]1C[C@]1(NC(=O)[C@@H]1C[C@@H](Oc2cc(-c3nc(C(C)C)cs3)nc3c(Cl)c(OC)ccc23)[C@H]2CN(C(=O)OC(C)(C)C)[C@H](C(C)C)C(=O)N21)C(=O)NS(=O)(=O)C1CC1 [Example 8] | > 99 |
| C=C[C@@H]1C[C@]1(NC(=O)[C@@H]1C[C@@H](Oc2cc(-c3nc(C(C)C)cs3)nc3c(Cl)c(OCCN4CCOCC4)ccc23)[C@H]2CN(C(=O)OC(C)(C)C)[C@H](C(C)C)C(=O)N21)C(=O)NS(=O)(=O)C1CC1 [Example 9] | > 99 |
| CC[C@@H]1C[C@]1(NC(=O)[C@@H]1C[C@@H](Oc2cc(-c3nc(C(C)C)cs3)nc3c(Cl)c(OCCN4CCOCC4)ccc23)[C@H]2CN(C(=O)OC(C)(C)C)[C@H](C(C)C)C(=O)N21)C(=O)NS(=O)(=O)C1CC1 [Example 11] | > 50 |
| CC[C@@H]1C[C@]1(NC(=O)[C@@H]1C[C@@H](Oc2cc(-c3nc(C(C)C)cs3)nc3c(Cl)c(OCC(OC)OC)ccc23)[C@H]2CN(C(=O)OC(C)(C)C)[C@H](C(C)C)C(=O)N21)C(=O)NS(=O)(=O)C1CC1 [Example 13] | > 99 |
| C=C[C@@H]1C[C@]1(NC(=O)[C@@H]1C[C@@H](Oc2cc(-c3nc(C(C)C)cs3)nc3c(Cl)c(OCCN4CCOCC4)ccc23)[C@H]2CN(S(C)(=O)=O)[C@H](C(C)C)C(=O)N21)C(=O)NS(=O)(=O)C1CC1 [Example 16] | > 25 |
| C=C[C@@H]1C[C@]1(NC(=O)[C@@H]1C[C@@H](Oc2cc(-c3nc(C(C)C)cs3)nc3c(Cl)c(OCCN4CCOCC4)ccc23)[C@H]2CN(C(=O)NC(C)(C)C)[C@H](C(C)C)C(=O)N21)C(=O)NS(=O)(=O)C1CC1 [Example 18] | > 35 |
| C=C[C@@H]1C[C@]1(NC(=O)[C@@H]1C[C@@H](Oc2cc(-c3nc(C(C)C)cs3)nc3c(Cl)c(OCCN4CCOCC4)ccc23)[C@H]2CN(C(=O)CC(C)(C)C)[C@H](C(C)C)C(=O)N21)C(=O)NS(=O)(=O)C1CC1 [Example 19] | > 55 |
| C=C[C@@H]1C[C@]1(NC(=O)[C@@H]1C[C@@H](Oc2cc(-c3nc(C(C)C)cs3)nc3c(Cl)c(OCCN4CCOCC4)ccc23)[C@H]2CN(C(=O)OC3CCCC3)[C@H](C(C)C)C(=O)N21)C(=O)NS(=O)(=O)C1CC1 [Example 20] | > 90 |
| C=C[C@@H]1C[C@]1(NC(=O)[C@@H]1C[C@@H](Oc2cc(-c3cccc(C(C)C)n3)nc3c(Cl)c(OC)ccc23)[C@H]2CN(C(=O)OC(C)(C)C)[C@H](C(C)C)C(=O)N21)C(=O)NS(=O)(=O)C1CC1 [Example 21] | > 99 |
| C=C[C@@H]1C[C@]1(NC(=O)[C@@H]1C[C@@H](Oc2cc(-c3nc(C(C)C)cs3)nc3c(Cl)c(OCCOC)ccc23)[C@H]2CN(C(=O)OC(C)(C)C)[C@H](C(C)(C)C)C(=O)N21)C(=O)NS(=O)(=O)C1CC1 [Example 22] | > 99 |
| C=C[C@@H]1C[C@]1(NC(=O)[C@@H]1C[C@@H](Oc2cc(-c3nc(C(C)C)cs3)nc3c(C)c(OC)ccc23)[C@H]2CN(C(=O)OC(C)(C)C)[C@H](C(C)(C)C)C(=O)N21)C(=O)NS(=O)(=O)C1CC1 [Example 24] | > 99 |
| C=C[C@@H]1C[C@]1(NC(=O)[C@@H]1C[C@@H](Oc2cc(-c3nc(C(C)C)cs3)nc3c(Cl)c(OCCN4CCOCC4)ccc23)[C@H]2CN(C(=O)OC(C)(C)C)[C@H](C(C)(C)C)C(=O)N21)C(=O)NS(=O)(=O)C1CC1 [Example 26] | > 99 |
| C=C[C@@H]1C[C@]1(NC(=O)[C@@H]1C[C@@H](Oc2cc(-n3ccc(C(C)C)n3)nc3c(Cl)c(OCCN4CCOCC4)ccc23)[C@H]2CN(C(=O)OC(C)(C)C)[C@H](C(C)(C)C)C(=O)N21)C(=O)NS(=O)(=O)C1CC1 [Example 28] | > 99 |
| C=C[C@@H]1C[C@]1(NC(=O)[C@@H]1C[C@@H](Oc2cc(-n3ccc(C(C)C)n3)nc3c(Cl)c(OCCN4CCOCC4)ccc23)[C@H]2CN(C(=O)OC(C)(C)C)[C@H](C(C)C)C(=O)N21)C(=O)NS(=O)(=O)C1CC1 [Example 30] | > 35 |

| SMILES | inhibition at 1 µM [%] |
| --- | --- |
| C=C[C@@H]1C[C@]1(NC(=O)[C@@H]1C[C@@H](Oc2cc(-c3nc(C(C)C)cs3)nc3c(Cl)c(OCCN4CCOCC4)ccc23)[C@H]2CN(C(=O)OC(C)(C)C)[C@H](C(C)(C)OC)C(=O)N21)C(=O)NS(=O)(=O)C1CC1 [Example 34] | > 95 |
| C=C[C@@H]1C[C@]1(NC(=O)[C@@H]1C[C@@H](Oc2cc(-c3nc(C(C)C)cs3)nc3c(Cl)c(OCCN4CCOCC4)ccc23)[C@H]2CN(C(=O)OC(C)(C)C)C(=C(C)C)C(=O)N21)C(=O)NS(=O)(=O)C1CC1 [Example 35] | > 35 |
| CC[C@@H]1C[C@]1(NC(=O)[C@@H]1C[C@@H](Oc2cc(-c3nc(C(C)C)cs3)nc3c(Cl)c(OCCN4CCOCC4)ccc23)[C@H]2CN(C(=O)OC(C)(C)C)[C@H]([C@H](C)CC)C(=O)N21)C(=O)NS(=O)(=O)C1CC1 [Example 36] | > 90 |
| C=C[C@@H]1C[C@]1(NC(=O)[C@@H]1C[C@@H](Oc2cc(-c3nc(C(C)C)cs3)nc3c(C)c(OC)ccc23)[C@H]2CN(C(=O)OC(C)(C)C)C([C@H](C)CC)C(=O)N21)C(=O)NS(=O)(=O)C1CC1 (stereo partly shown) [Example 38] | > 95 |
| C=C[C@@H]1C[C@]1(NC(=O)[C@@H]1C[C@@H](Oc2cc(-c3nc(C(C)C)cs3)nc3c(Cl)c(OCCN4CCOCC4)ccc23)[C@H]2CN(C(=O)OC(C)(C)C)[C@H]([C@@H](C)CC)C(=O)N21)C(=O)NS(=O)(=O)C1CC1 [Example 40] | > 75 |
| CC[C@@H]1C[C@]1(NC(=O)[C@@H]1C[C@@H](Oc2cc(-c3nc(C(C)C)cs3)nc3c(Cl)c(OCCN4CCOCC4)ccc23)[C@H]2CN(C(=O)OC(C)(C)C)[C@H]([C@@H](C)CC)C(=O)N21)C(=O)NS(=O)(=O)C1CC1 [Example 42] | > 95 |
| C=C[C@@H]1C[C@]1(NC(=O)[C@@H]1C[C@@H](Oc2cc(-c3cccc(C(C)C)n3)nc3c(Cl)c(OC)ccc23)[C@H]2CN(C(=O)OC(C)(C)C)[C@H](C(C)(C)C)C(=O)N21)C(=O)NS(=O)(=O)C1CC1 [Example 44] | > 99 |
| C=C[C@@H]1C[C@]1(NC(=O)[C@@H]1C[C@@H](Oc2cc(-c3nc(C(C)C)cs3)nc3c(Cl)c(OCCN4CCOCC4)ccc23)[C@H]2CN(C(=O)OC(C)(C)C)[C@H](C(C)C)C(=O)N21)C(=O)NS(=O)(=O)C1(C)CC1 [Example 46] | > 99 |
| C=C[C@@H]1C[C@]1(NC(=O)[C@@H]1C[C@@H](Oc2cc(-c3nc(C(C)C)cs3)nc3c(Cl)c(OCCN4CCOCC4)ccc23)[C@H]2CN(C(=O)OC(C)(C)C)[C@H]([C@H](C)CC)C(=O)N21)C(=O)NS(=O)(=O)C1CC1 [Example 49] | > 95 |
| C=C[C@@H]1C[C@]1(NC(=O)[C@@H]1C[C@@H](Oc2cc(-c3nc(C(C)C)cs3)nc3c(Cl)c(OCCN4CCOCC4)ccc23)[C@H]2CN(C(=O)OC(C)(C)C)[C@H]([C@@H](C)OC)C(=O)N21)C(=O)NS(=O)(=O)C1CC1 [Example 54] | > 45 |
| C=C[C@@H]1C[C@]1(NC(=O)[C@@H]1C[C@@H](Oc2cc(-c3nc(C(C)C)cs3)nc3c(Cl)c(OCCN4CCOCC4)ccc23)[C@H]2CN(C(=O)OC(C)(C)C)[C@H]([C@H](C)OC)C(=O)N21)C(=O)NS(=O)(=O)C1CC1 [Example 55] | > 95 |
| C=C[C@@H]1C[C@]1(NC(=O)[C@@H]1C[C@@H](Oc2cc(-c3nc(C(C)C)cs3)nc3c(C)c(OC)ccc23)[C@H]2CN(C(=O)OC(C)(C)C)[C@H](C(C)C)C(=O)N21)C(=O)NS(=O)(=O)C1CC1 [Example 58] | > 85 |
| CC[C@@H]1C[C@]1(NC(=O)[C@@H]1C[C@@H](Oc2cc(-c3nc(C(C)C)cs3)nc3c(C)c(OC)ccc23)[C@H]2CN(C(=O)OC(C)(C)C)[C@H](C(C)C)C(=O)N21)C(=O)NS(=O)(=O)C1CC1 [Example 59] | > 45 |
| C=C[C@@H]1C[C@]1(NC(=O)[C@@H]1C[C@@H](Oc2cc(-c3nc(C(C)C)cs3)nc3c(C)c(OC)ccc23)[C@H]2CN(C)[C@H](C(C)C)C(=O)N21)C(=O)NS(=O)(=O)C1CC1 [Example 62] | > 99 |
| CC[C@@H]1C[C@]1(NC(=O)[C@@H]1C[C@@H](Oc2cc(-c3nc(C(C)C)cs3)nc3c(C)c(OC)ccc23)[C@H]2CN(C)[C@H](C(C)C)C(=O)N21)C(=O)NS(=O)(=O)C1CC1 [Example 63] | > 40 |
| C=C[C@@H]1C[C@]1(NC(=O)[C@@H]1C[C@@H](Oc2cc(-c3nc(C(C)C)cs3)nc3c(Cl)c(OCCN4CCOCC4)ccc23)[C@H]2CN(C(=O)OC(C)(C)C)[C@H](C3CCOCC3)C(=O)N21)C(=O)NS(=O)(=O)C1CC1 [Example 73] | > 90 |
| CC[C@@H]1C[C@]1(NC(=O)[C@@H]1C[C@@H](Oc2cc(-c3nc(C(C)C)cs3)nc3c(Cl)c(OCCN4CCOCC4)ccc23)[C@H]2CN(C(=O)OC(C)(C)C)[C@H](C3CCOCC3)C(=O)N21)C(=O)NS(=O)(=O)C1CC1 [Example 74] | > 90 |
